Source: publication PMC7226357, “Aspirin: A Suicide Inhibitor of Carbonic Anhydrase II” (Biomolecules, 2020)

Molecular target: T1, Carbonic anhydrase II (Homo sapiens, UniProt P00918)
T1 construct: gene CA2
Assay: colorimetric esterase assay at […] nm (substrate of the assay)
Assay type: biochemical

Compound: CC(=O)Oc1ccc([N+](=O)[O-])cc1 [pNPA, 4-nitrophenyl acetate]
- colorimetric esterase assay at 348 nm (substrate of the assay): CAII cleaves the ester bond of 4-nitrophenyl acetate, generating 4-nitrophenol.
